From patent US20070203073A1 (priority 2005, published 2007)
“Also recorded” adds a separate entry of the source. Where a SMILES comes first, the peptide text is derived from it. [ ]: non-standard residue; d: D form. The star is where a group is joined. Sta = CC(C)C[C@H](N)[C@@H](O)CC(=O)O; Isovaleryl = CC(C)CC(=O)*; Cbz = O=C(OCc1ccccc1)*; CH2F = FC*

How the values were obtained:
thrombin = conditions: read-out: Ki, inhibition of thrombin; cited from earlier work
SARS-CoV S protein [1] = experiment: microbe, parasite or virus in culture; type: cell-based
VSV-G = type: cell-based
caspase 6 [2] = target: T1, caspase 6 (Homo sapiens, UniProt P55212); type: biochemical
T1 sequence (P55212 24-179 limits assumed): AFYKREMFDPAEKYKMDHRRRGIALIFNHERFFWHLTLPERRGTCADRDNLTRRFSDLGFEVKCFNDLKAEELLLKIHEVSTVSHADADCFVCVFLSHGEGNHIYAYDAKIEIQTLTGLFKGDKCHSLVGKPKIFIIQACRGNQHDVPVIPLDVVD
T1 sequence (P55212 194-293 limits assumed): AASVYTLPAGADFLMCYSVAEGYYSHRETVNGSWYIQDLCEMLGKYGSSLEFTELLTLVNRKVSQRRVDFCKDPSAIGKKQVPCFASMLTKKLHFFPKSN

caspase 4 [3] = target: T2, caspase 4 (Homo sapiens, UniProt P49662); experiment: biochemical
T2 sequence (P49662 81-270 limits assumed): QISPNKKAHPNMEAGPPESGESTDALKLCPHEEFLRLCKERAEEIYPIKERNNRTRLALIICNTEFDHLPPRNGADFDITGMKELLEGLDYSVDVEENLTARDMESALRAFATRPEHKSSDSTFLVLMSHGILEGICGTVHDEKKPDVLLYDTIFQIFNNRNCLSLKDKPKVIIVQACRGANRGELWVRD
T2 sequence (P49662 290-377 limits assumed): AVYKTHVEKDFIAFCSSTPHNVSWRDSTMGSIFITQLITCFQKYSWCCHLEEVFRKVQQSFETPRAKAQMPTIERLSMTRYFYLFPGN

caspase 2 [4] = target: T3, caspase 2 (Homo sapiens, UniProt P42575); experiment: biochemical
T3 sequence (P42575 170-325 limits assumed): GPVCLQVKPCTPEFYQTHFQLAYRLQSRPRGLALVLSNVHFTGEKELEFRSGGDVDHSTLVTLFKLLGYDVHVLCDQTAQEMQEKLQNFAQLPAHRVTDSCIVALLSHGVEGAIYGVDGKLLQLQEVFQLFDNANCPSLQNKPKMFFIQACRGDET
T3 sequence (P42575 348-452 limits assumed): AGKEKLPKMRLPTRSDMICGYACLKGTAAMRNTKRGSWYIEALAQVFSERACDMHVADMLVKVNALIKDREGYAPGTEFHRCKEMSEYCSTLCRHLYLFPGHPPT

caspase 6 [5] = target: T1, caspase 6; experiment: biochemical
caspase 2 [6] = target: T3, caspase 2; type: biochemical
caspase 4 [7] = target: T2, caspase 4; type: biochemical
human cathepsin L = human cathepsin L (Homo sapiens, UniProt P07711); type: biochemical
human cathepsin L, sequence (P07711 114-333): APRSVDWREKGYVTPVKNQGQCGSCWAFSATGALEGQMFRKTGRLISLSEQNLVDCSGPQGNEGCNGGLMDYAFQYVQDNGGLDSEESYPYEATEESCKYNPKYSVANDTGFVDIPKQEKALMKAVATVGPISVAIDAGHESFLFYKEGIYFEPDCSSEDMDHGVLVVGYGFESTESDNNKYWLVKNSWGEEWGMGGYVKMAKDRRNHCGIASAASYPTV

MLV-Amphotropic Env = type: cell-based
EboV GP glycoprotein = type: cell-based
ASLV-A Env = type: cell-based
SARS-CoV S protein [8] = type: cell-based
SARS-CoV (strain Tor2) = type: cell-based
[9] = IC50 against the three caspases (range stated for all)

N=C(N)c1ccccc1 [benzamidine]
Ki (thrombin): 300 to 1000 µM

CC(C)C[C@H](NC(=O)[C@H](CC(C)C)NC(=O)[C@H](CC(C)C)NC(=O)OCc1ccccc1)C(=O)CF [Z-LLL-FMK, Z-leu-leu-leu-fluoromethyl ketone] (Cbz-Leu-Leu-Leu-CH2F)
effect on infection of HIV-luc(SARS S) (SARS-CoV S protein [1]): efficiently inhibited infection | effect on infection of HIV-luc(VSV-G) (VSV-G): but not HIV-luc(VSV-G)

Cl.N [ammonium chloride]
effect on infection mediated by S protein (SARS-CoV S protein [1]): dramatically reduced infection | effect on infection mediated by VSV-G (VSV-G): dramatically reduced infection

CC1=NN(c2ccccc2)C(=O)C1=NNc1c(Br)cc(Br)cc1Br [compound 1, 5-methyl-2-phenyl-4-[(2,4,6-tribromo-phenyl)-hydrazono]-2,4-dihydro-pyrazol-3-one]
substrate conversion in microarray screen (caspase 6 [2]): low substrate conversion | inhibition (caspase 4 [3]): 100% | IC50 (caspase 4 [3]; IC50 against caspase 4): ~500 µM | IC50 (caspase 4 [3]; [9]): 500 to 5000 µM | inhibition (caspase 2 [4]): 100% | IC50 (caspase 2 [4]; IC50 against caspase 2): ~5000 µM | IC50 (caspase 2 [4]; [9]): 500 to 5000 µM | inhibition (caspase 6 [5]): 100% | IC50 (caspase 6 [5]; IC50 against caspase 6): ~5000 µM | IC50 (caspase 6 [5]; [9]): 500 to 5000 µM | substrate conversion in microarray screen (caspase 2 [6]): reduced substrate conversion | substrate conversion in microarray screen (caspase 4 [7]): reduced substrate conversion

CC(C)[C@H](NC(=O)OCc1ccccc1)C(=O)N[C@H](C=O)Cc1ccccc1 [MDL 28170, Z-Val-Phe-CHO] (Cbz-Val-Phe-aldehyde)
effect on SARS CoV S pseudotype entry/infection (SARS-CoV S protein [1]): inhibits entry; also recorded: potently and specifically inhibits pseudotype infection | IC50 (SARS-CoV S protein [1]; read-out: IC50, pseudotype virion entry into cells): ~0.1 µM | hit in cathepsin L microarray screen (human cathepsin L): inhibitors and hits | effect on VSV pseudotype entry (VSV-G): not inhibited | effect on MLV pseudotype entry (MLV-Amphotropic Env): not inhibited | effect on EboV GP pseudotype entry/infection (EboV GP glycoprotein): inhibits entry; also recorded: potently and specifically inhibits pseudotype infection

aprotinin
effect on infection by pseudotypes bearing S protein (SARS-CoV S protein [1]): had no effect

CC(=O)N[C@@H](CC(C)C)C(=O)N[C@@H](CC(C)C)C(=O)N[C@H](C=O)CCCNC(=N)N [leupeptin]
concentration necessary to achieve 95% inhibition of S protein-mediated entry (SARS-CoV S protein [1]): 100 µg/mL | inhibition at 10 µg/mL (SARS-CoV S protein [1]; Severe acute respiratory syndrome coronavirus, HEK-293T, 10 μg/ml, read-out: inhibition of entry mediated by SARS-CoV S protein): > 95% | hit in cathepsin L microarray screen (human cathepsin L): inhibitors and hits | effect on ASLV-A Env mediated infection (ASLV-A Env): no effect | effect on infection mediated by VSV-G (VSV-G): not inhibited | effect on S protein-mediated intervirion fusion (luciferase activity) (SARS-CoV S protein [8]): S protein-mediated fusion was lost | effect on infection mediated by MLV-Amphotropic Env (MLV-Amphotropic Env): not inhibited | effect on SARS-CoV replication (SARS-CoV (strain Tor2)): little or no effect | effect on infection by replication-competent SARS-CoV (SARS-CoV (strain Tor2)): inhibited

CCCNC(=O)[C@H]1O[C@@H]1C(=O)N[C@H](C(=O)N1CCC[C@H]1C(=O)O)[C@@H](C)CC [CA-074]
effect on infection of HIV-luc(SARS S) (SARS-CoV S protein [1]): did not dramatically affect infection | effect on infection of HIV-luc(VSV-G) (VSV-G): did not dramatically affect infection

CC(C)CC(=O)N[C@H](C(=O)N[C@H](C(=O)N[C@@H](CC(C)C)[C@@H](O)CC(=O)N[C@@H](C)C(=O)N[C@@H](CC(C)C)[C@@H](O)CC(=O)O)C(C)C)C(C)C [pepstatin] (Isovaleryl-VV[Sta]A[Sta]-OH)
effect on infection by pseudotypes bearing S protein (SARS-CoV S protein [1]): had no effect | effect on VSV-G mediated infection (VSV-G): had no effect
